# Experimental data published in BindingDB's records for patent US20230399319 (Japan Tobacco, 2023).
# pIC50: −log10 of the molar value.
# Target: NACHT, LRR and PYD domains-containing protein 3 (Homo sapiens, UniProt Q96P20)
# Assay: Evaluation of NLRP3 Inflammasome Inhibitory Activity Assay
# Experimental: The NLRP3 inflammasome inhibitory activity of test compounds were evaluated CM the basis of the inhibitory activity of the IL-1β, production in THP1-Null cells (Product Number: thp-null, InvivoGen). […] A solution containing a test compound (20 μL/well) was added to test compound-setting wells. […] The supernatant of the culture was cryonically stored (set at −20° C.) until measurement of IL-1β.
# Sequence of NACHT, LRR and PYD domains-containing protein 3 (Q96P20 whole entry, the tested form may be a part): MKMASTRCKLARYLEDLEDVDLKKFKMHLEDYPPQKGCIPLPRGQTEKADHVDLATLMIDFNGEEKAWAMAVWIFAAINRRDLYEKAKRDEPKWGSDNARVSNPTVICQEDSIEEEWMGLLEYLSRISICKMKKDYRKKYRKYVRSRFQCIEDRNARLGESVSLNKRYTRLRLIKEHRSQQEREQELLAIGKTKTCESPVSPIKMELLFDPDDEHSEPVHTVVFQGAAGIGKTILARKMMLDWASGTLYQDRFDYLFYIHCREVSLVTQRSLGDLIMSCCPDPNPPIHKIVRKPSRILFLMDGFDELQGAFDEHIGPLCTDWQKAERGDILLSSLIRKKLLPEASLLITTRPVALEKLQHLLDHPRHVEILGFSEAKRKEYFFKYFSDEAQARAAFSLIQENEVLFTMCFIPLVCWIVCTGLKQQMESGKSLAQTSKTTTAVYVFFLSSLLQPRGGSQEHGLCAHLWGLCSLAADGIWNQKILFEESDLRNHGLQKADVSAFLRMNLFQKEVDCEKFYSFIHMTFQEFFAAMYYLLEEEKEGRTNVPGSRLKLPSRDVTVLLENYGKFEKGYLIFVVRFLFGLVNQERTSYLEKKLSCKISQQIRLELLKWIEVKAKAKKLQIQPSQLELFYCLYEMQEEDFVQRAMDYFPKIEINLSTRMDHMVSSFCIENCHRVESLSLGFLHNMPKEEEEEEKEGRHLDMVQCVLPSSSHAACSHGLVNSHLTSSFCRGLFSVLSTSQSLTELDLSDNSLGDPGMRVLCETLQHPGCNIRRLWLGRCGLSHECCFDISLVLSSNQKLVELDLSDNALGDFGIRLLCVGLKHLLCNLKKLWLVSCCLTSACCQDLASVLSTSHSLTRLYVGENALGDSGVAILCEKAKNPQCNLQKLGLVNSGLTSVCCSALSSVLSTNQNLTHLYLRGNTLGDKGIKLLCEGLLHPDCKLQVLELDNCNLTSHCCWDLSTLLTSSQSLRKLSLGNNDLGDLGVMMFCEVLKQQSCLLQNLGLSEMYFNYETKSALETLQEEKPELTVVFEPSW
row,SMILES,pIC50
1,"COC(=O)CC1COCCN1S(=O)(=O)NC(=O)c1coc(Nc2c3c(c(Cl)c4c2CCC4)CCC3)n1 (racemic) [US20230399319, Example 73]",6.89
2,"CC1CCN(S(=O)(=O)NC(=O)c2coc(Nc3c4c(c(F)c5c3CCC5)CCC4)n2)C1 (centres undefined) [US20230399319, Example 2-008]",6.74
3,"CC1(C)CCN(S(=O)(=O)NC(=O)c2coc(Nc3c4c(c(F)c5c3CCC5)CCC4)n2)C1 [US20230399319, Example 2-009]",6.42
4,"Cc1ccc(C(F)(F)F)cc1Nc1nc(C(=O)NS(=O)(=O)N2CCOC3(COC3)C2)co1 [US20230399319, Example 2-017]",7.08
5,"Cc1ccc(C(F)(F)F)cc1Nc1nc(C(=O)NS(=O)(=O)N2CCC(S(C)(=O)=O)CC2)co1 [US20230399319, Example 2-018]",7.30
6,"Cc1ccc(C(F)(F)F)cc1Nc1nc(C(=O)NS(=O)(=O)N2CCC(C)C2)co1 (centres undefined) [US20230399319, Example 2-019]",7.15
7,"Cc1ccc(C(F)(F)F)cc1Nc1nc(C(=O)NS(=O)(=O)N2CCC(C)(C)C2)co1 [US20230399319, Example 2-020]",7.00
8,"Cc1ccc(C(F)(F)F)cc1Nc1nc(C(=O)NS(=O)(=O)N2CCC(F)(F)C2)co1 [US20230399319, Example 2-021]",7.05
9,"Cc1ccc(C(F)(F)F)cc1Nc1nc(C(=O)NS(=O)(=O)N2CCC(CS(C)(=O)=O)CC2)co1 [US20230399319, Example 2-022]",6.62
10,"Cc1ccc(C(F)(F)F)cc1Nc1nc(C(=O)NS(=O)(=O)N2CCC(F)(F)CC2)co1 [US20230399319, Example 2-023]",6.89
11,"Cc1ccc(C(F)(F)F)cc1Nc1nc(C(=O)NS(=O)(=O)N2CCC(C(F)(F)F)CC2)co1 [US20230399319, Example 2-024]",7.51
12,"CC(C)c1ccc(C(F)(F)F)cc1Nc1nc(C(=O)NS(=O)(=O)N(C)C)co1 [US20230399319, Example 2-025]",> 7.52
13,"CC(C)c1ccc(C(F)(F)F)cc1Nc1nc(C(=O)NS(=O)(=O)N2CCOCC2)co1 [US20230399319, Example 2-026]",> 7.52
14,"Cc1cc(Cl)c(C(C)C)cc1Nc1nc(C(=O)NS(=O)(=O)N(C)C)co1 [US20230399319, Example 2-027]",7.47
15,"Cc1cc(Cl)c(C(C)C)cc1Nc1nc(C(=O)NS(=O)(=O)N2CCOCC2)co1 [US20230399319, Example 2-028]",> 7.52
16,"COC[C@@H]1CCCN1S(=O)(=O)NC(=O)c1coc(Nc2cc(C(F)(F)F)ccc2C)n1 [US20230399319, Example 2-038]",> 7.52
17,"Cc1ccc(C(C)C)cc1Nc1nc(C(=O)NS(=O)(=O)N(C)C)co1 [US20230399319, Example 2-040]",6.89
18,"Cc1c(Nc2nc(C(=O)NS(=O)(=O)N(C)C)co2)cc(C(F)(F)F)cc1C(F)(F)F [US20230399319, Example 2-041]",6.47
19,"Cc1ccc(C(F)(F)F)cc1Nc1nc(C(=O)NS(=O)(=O)N(C(C)C)C(C)C)co1 [US20230399319, Example 2-051]",7.36
20,"COC[C@H]1CCCN1S(=O)(=O)NC(=O)c1coc(Nc2cc(C(F)(F)F)ccc2C)n1 [US20230399319, Example 2-052]",6.89
21,"Cc1ccc(C(F)(F)F)cc1Nc1nc(C(=O)NS(=O)(=O)N2[C@H](C)CCC[C@@H]2C)co1 [US20230399319, Example 2-053]",7.05
22,"CN(C)S(=O)(=O)NC(=O)c1coc(Nc2cc(C(F)(F)F)ccc2C2CC2)n1 [US20230399319, Example 2-067]",7.04

row,SMILES,pIC50
1,"CC(C)c1ccc(C(C)C)c(Nc2nc(C(=O)NS(=O)(=O)N3CCCOCC3)co2)c1 [US20230399319, Example 2-071]",7.37
2,"CC(C)c1ccc(C(F)(F)F)cc1Nc1nc(C(=O)NS(=O)(=O)N2CCCOCC2)co1 [US20230399319, Example 2-072]",7.57
3,"Cc1ccc(C(F)(F)F)cc1Nc1nc(C(=O)NS(=O)(=O)N2CC(F)(F)C2)co1 [US20230399319, Example 2-077]",6.28
4,"Cc1ccc(C(F)(F)F)cc1Nc1nc(C(=O)NS(=O)(=O)N2CCC2C)co1 (centres undefined) [US20230399319, Example 2-078]",7.00
5,"Cc1ccc(C(F)(F)F)cc1Nc1nc(C(=O)NS(=O)(=O)N2CCC[C@H]2C(=O)N(C)C)co1 [US20230399319, Example 2-079]",6.55
6,"Cc1ccc(C(F)(F)F)cc1Nc1nc(C(=O)NS(=O)(=O)N2CCC[C@@H]2C(=O)N(C)C)co1 [US20230399319, Example 2-080]",6.03
7,"Cc1ccc(C(C)CC#N)cc1Nc1nc(C(=O)NS(=O)(=O)N(C)C)co1 (centres undefined) [US20230399319, Example 2-096]",5.74
8,"Cc1ccc(C(F)(F)F)cc1Nc1nc(C(=O)NS(=O)(=O)N(C)CC#N)co1 [US20230399319, Example 2-108]",6.89
9,"Cc1ccc(C(F)(F)F)cc1Nc1nc(C(=O)NS(=O)(=O)N2CCC(C#N)CC2)co1 [US20230399319, Example 2-109]",7.42
10,"Cc1ccc(C(F)(F)F)cc1Nc1nc(C(=O)NS(=O)(=O)N(C)CC(=O)N(C)C)co1 [US20230399319, Example 2-110]",6.47
11,"Cc1ccc(C(C)(C)C)cc1Nc1nc(C(=O)NS(=O)(=O)N2CCCOCC2)co1 [US20230399319, Example 2-112]",7.19
12,"Cc1ccc(C)c(Nc2nc(C(=O)NS(=O)(=O)N3CCCOCC3)co2)c1C [US20230399319, Example 2-114]",6.47
13,"Cc1cccc(C)c1Nc1nc(C(=O)NS(=O)(=O)N2CCCOCC2)co1 [US20230399319, Example 2-115]",5.89
14,"CC(C)c1ccc(C(F)(F)F)cc1Nc1nc(C(=O)NS(=O)(=O)N2CCCN(C)CC2)co1 [US20230399319, Example 2-123]",6.68
15,"CC(C)c1ccc(C(F)(F)F)cc1Nc1nc(C(=O)NS(=O)(=O)N2CCCC2CO)co1 (centres undefined) [US20230399319, Example 2-124]",7.33
16,"Cc1ccc(C(C)(C)C)cc1Nc1nc(C(=O)NS(=O)(=O)N(C)CCN(C)C)co1 [US20230399319, Example 2-132]",5.72
17,"Cc1ccc(C(F)(F)F)cc1Nc1nc(C(=O)NS(=O)(=O)N(C)Cc2cccnc2)co1 [US20230399319, Example 2-134]",7.10
18,"CC(C)c1ccc(C(F)(F)F)cc1Nc1ncc(C(=O)NS(=O)(=O)N2CCCOCC2)o1 [US20230399319, Example 2-135]",7.36
19,"Cc1ccc(C(F)(F)F)cc1Nc1nc(C(=O)NS(=O)(=O)N2CCCC(C#N)CC2)co1 (centres undefined) [US20230399319, Example 2-141]",8.01
20,"Cc1ccc(C(F)(F)F)cc1Nc1nc(C(=O)NS(=O)(=O)N2CCCCCC2)co1 [US20230399319, Example 2-145]",7.38
21,"Cc1ccc(C(F)(F)F)cc1Nc1nc(C(=O)NS(=O)(=O)N2CCCC(=O)CC2)co1 [US20230399319, Example 2-149]",7.49
22,"Cc1ccc(C(F)(F)F)cc1Nc1nc(C(=O)NS(=O)(=O)N2CCCC(CC#N)CC2)co1 (centres undefined) [US20230399319, Example 2-150]",7.60

row,SMILES,pIC50
1,"COCC1COCCN(S(=O)(=O)NC(=O)c2coc(Nc3cc(C(F)(F)F)ccc3C)n2)C1 (centres undefined) [US20230399319, Example 2-151]",7.19
2,"Cc1cn(CC(F)(F)F)nc1Nc1nc(C(=O)NS(=O)(=O)N2CCCOCC2)co1 [US20230399319, Example 2-152]",5.21
3,"Cc1cn(C2CCCC2)nc1Nc1nc(C(=O)NS(=O)(=O)N2CCCOCC2)co1 [US20230399319, Example 2-153]",5.64
4,"CCCCS(=O)(=O)N1CCCN(S(=O)(=O)NC(=O)c2coc(Nc3cn(C(C)C)nc3C(C)C)n2)CC1 [US20230399319, Example 2-161]",7.15
5,"CC(=O)NCCN(C)S(=O)(=O)NC(=O)c1coc(Nc2cc(C(F)(F)F)ccc2C)n1 [US20230399319, Example 2-162]",6.52
6,"Cc1ccc(C(F)(F)F)cc1Nc1nc(C(=O)NS(=O)(=O)N(C)Cc2ccccc2)co1 [US20230399319, Example 2-163]",7.31
7,"COCCN(CCOC)S(=O)(=O)NC(=O)c1coc(Nc2cc(C(F)(F)F)ccc2C)n1 [US20230399319, Example 2-164]",6.85
8,"Cc1ccc(C(F)(F)F)cc1Nc1nc(C(=O)NS(=O)(=O)N(C)C2CC2)co1 [US20230399319, Example 2-165]",7.00
9,"Cc1ccc(C(C)C)cc1Nc1nc(C(=O)NS(=O)(=O)N(C)Cc2ccccn2)co1 [US20230399319, Example 2-167]",7.32
10,"CCC(CC)n1cc(C)c(Nc2nc(C(=O)NS(=O)(=O)N3CCCOCC3)co2)n1 [US20230399319, Example 2-168]",5.01
11,"Cc1ccc(C(F)(F)F)cc1Nc1nc(C(=O)NS(=O)(=O)N2CCCC(N(C)C)CC2)co1 (centres undefined) [US20230399319, Example 2-173]",6.92
12,"Cc1ccc(C(F)(F)F)cc1Nc1nc(C(=O)NS(=O)(=O)N2CCCC2C)co1 (centres undefined) [US20230399319, Example 2-174]",7.26
13,"Cc1cn(C(C)C(F)(F)F)nc1Nc1nc(C(=O)NS(=O)(=O)N2CCCOCC2)co1 (centres undefined) [US20230399319, Example 2-178]",6.06
14,"Cc1ccc(C(F)(F)F)cc1Nc1nc(C(=O)NS(=O)(=O)N2CCCCC2C(F)F)co1 (centres undefined) [US20230399319, Example 2-187]",6.96
15,"Cc1cn(C2CCC2)nc1Nc1nc(C(=O)NS(=O)(=O)N2CCCOCC2)co1 [US20230399319, Example 2-188]",6.10
16,"Cc1ccc(C(F)(F)F)cc1Nc1nc(C(=O)NS(=O)(=O)N2CCOCC(F)(F)C2)co1 [US20230399319, Example 2-190]",7.77
17,"CC(C)c1nn(C(C)C)cc1Nc1nc(C(=O)NS(=O)(=O)N2CCCC(C#N)CC2)co1 (centres undefined) [US20230399319, Example 2-191]",6.46
18,"Cc1cn(C(C)C)nc1Nc1nc(C(=O)NS(=O)(=O)N2CCCC(C#N)CC2)co1 (centres undefined) [US20230399319, Example 2-192]",6.80
19,"COC1CCN(S(=O)(=O)NC(=O)c2coc(Nc3cc(C(F)(F)F)ccc3C)n2)C1 (centres undefined) [US20230399319, Example 2-199]",6.80
20,"CCC(C)n1cc(C)c(Nc2nc(C(=O)NS(=O)(=O)N3CCCOCC3)co2)n1 (centres undefined) [US20230399319, Example 2-200]",5.96
